What is called IC50 is the midpoint of a concentration-inhibition curve.

The target in assay [1] is Histone deacetylase 3 (Homo sapiens, UniProt O15379). The assay is described as follows: Inhibition of human recombinant HDAC3 pre-incubated with compounds for 10 mins measured followed by 60 mins of substrate addition.
Assay [2] has as its system HeLa. The assay is described as follows: Antiproliferative activity against human HeLa cells measured after 48 hrs incubation by MTT assay relative to control. Type of assay: functional, cell-based.
A short description of assay [3]: Antiproliferative activity against […] cells measured after 48 hrs incubation by MTT assay relative to control. It is filed as functional, cell-based. The conditions noted are these: Mus musculus, Lung cancer cell line. In general terms: Tetrazolium dyes change colour on reduction, which living cells bring about.
Assay [4] deals with T1, Protein deacetylase HDAC6 (Homo sapiens, UniProt Q9UBN7).
T1 sequence (Q9UBN7 whole entry): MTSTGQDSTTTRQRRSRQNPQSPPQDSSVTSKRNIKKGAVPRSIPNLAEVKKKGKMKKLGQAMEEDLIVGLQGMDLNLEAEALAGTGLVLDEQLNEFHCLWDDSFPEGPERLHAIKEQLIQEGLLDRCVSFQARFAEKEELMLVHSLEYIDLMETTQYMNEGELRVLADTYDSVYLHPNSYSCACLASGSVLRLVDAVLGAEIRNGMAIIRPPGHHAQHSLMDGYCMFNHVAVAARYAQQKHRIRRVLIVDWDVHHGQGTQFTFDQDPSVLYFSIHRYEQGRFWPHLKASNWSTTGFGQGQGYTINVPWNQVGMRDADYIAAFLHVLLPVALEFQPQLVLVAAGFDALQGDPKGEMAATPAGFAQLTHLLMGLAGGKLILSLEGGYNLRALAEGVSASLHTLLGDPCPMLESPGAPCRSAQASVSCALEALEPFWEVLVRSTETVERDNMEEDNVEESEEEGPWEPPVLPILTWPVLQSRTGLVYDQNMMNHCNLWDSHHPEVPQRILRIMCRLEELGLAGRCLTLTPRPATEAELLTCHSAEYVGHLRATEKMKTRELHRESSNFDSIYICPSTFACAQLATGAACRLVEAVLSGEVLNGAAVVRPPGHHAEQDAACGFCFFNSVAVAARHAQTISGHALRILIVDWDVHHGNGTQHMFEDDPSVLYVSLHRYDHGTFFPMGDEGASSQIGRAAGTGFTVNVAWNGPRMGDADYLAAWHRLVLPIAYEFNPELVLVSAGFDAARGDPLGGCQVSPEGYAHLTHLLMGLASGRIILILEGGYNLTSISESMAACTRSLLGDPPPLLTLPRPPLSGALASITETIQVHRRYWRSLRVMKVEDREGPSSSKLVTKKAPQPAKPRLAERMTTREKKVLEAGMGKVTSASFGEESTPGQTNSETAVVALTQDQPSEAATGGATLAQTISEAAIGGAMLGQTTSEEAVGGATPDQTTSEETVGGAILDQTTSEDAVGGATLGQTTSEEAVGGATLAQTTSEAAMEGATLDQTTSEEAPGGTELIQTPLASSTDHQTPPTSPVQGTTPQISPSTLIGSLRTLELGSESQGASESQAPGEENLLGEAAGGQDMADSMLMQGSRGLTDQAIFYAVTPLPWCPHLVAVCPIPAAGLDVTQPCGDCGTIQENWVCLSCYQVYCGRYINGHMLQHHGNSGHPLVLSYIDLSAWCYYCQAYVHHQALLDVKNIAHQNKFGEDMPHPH
The experiment in a line: Inhibition of human recombinant HDAC6 pre-incubated with compounds for 10 mins measured followed by 60 mins of substrate addition.

The test system of assay [5] is B16-F10. The assay is described as follows: Antiproliferative activity against mouse B16-F10 cells at 1 uM measured after 48 hrs incubation by MTT assay relative to control.
For assay [6], the system named is B16-F10 (Mus musculus). The experiment in a line: Antiproliferative activity against mouse B16-F10 cells measured after 48 hrs incubation by MTT assay relative to control. The conditions noted are these: B16-F10, 48 h.
Assay [7] relates to HepG2. The experiment in a line: Antiproliferative activity against human HepG2 cells measured after 48 hrs incubation by MTT assay relative to control. Type of assay: functional, cell-based. The conditions noted are these: HepG2, 48 h.
Assay [8] deals with MCF7. The experiment in a line: Antiproliferative activity against human MCF7 cells measured after 48 hrs incubation by MTT assay relative to control. The settings on record: MCF7, 48 h. It is filed as functional, cell-based.
Assay [9] deals with T2, Histone deacetylase 8 (Homo sapiens, UniProt Q9BY41).
T2 sequence (Q9BY41 whole entry): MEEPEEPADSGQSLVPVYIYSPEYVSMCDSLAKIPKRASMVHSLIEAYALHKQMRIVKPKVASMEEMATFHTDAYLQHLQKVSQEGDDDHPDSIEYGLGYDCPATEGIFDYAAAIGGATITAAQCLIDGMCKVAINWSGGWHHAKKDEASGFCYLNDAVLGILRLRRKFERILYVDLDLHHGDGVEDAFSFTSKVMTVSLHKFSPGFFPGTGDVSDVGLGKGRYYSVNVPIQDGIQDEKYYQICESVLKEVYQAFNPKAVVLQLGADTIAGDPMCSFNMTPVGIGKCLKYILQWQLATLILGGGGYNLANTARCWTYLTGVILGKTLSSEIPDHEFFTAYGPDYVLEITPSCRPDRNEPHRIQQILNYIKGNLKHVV
The assay is described as follows: Inhibition of human recombinant HDAC8 pre-incubated with compounds for 10 mins measured followed by 60 mins of substrate addition.

The target in assay [10] is Histone deacetylase 1 (Homo sapiens, UniProt Q13547). The assay is described as follows: Inhibition of human recombinant HDAC1 pre-incubated with compounds for 10 mins measured followed by 60 mins of substrate addition.
The test system of assay [11] is MC-38. The experiment in a line: Antiproliferative activity against mouse MC38 cells measured after 48 hrs incubation by MTT assay relative to control. Type of assay: functional, cell-based. The settings on record: MC-38, 48 h.
In assay [12] the target is T3, Histone deacetylase 7 (Homo sapiens, UniProt Q8WUI4).
T3 sequence (Q8WUI4 whole entry): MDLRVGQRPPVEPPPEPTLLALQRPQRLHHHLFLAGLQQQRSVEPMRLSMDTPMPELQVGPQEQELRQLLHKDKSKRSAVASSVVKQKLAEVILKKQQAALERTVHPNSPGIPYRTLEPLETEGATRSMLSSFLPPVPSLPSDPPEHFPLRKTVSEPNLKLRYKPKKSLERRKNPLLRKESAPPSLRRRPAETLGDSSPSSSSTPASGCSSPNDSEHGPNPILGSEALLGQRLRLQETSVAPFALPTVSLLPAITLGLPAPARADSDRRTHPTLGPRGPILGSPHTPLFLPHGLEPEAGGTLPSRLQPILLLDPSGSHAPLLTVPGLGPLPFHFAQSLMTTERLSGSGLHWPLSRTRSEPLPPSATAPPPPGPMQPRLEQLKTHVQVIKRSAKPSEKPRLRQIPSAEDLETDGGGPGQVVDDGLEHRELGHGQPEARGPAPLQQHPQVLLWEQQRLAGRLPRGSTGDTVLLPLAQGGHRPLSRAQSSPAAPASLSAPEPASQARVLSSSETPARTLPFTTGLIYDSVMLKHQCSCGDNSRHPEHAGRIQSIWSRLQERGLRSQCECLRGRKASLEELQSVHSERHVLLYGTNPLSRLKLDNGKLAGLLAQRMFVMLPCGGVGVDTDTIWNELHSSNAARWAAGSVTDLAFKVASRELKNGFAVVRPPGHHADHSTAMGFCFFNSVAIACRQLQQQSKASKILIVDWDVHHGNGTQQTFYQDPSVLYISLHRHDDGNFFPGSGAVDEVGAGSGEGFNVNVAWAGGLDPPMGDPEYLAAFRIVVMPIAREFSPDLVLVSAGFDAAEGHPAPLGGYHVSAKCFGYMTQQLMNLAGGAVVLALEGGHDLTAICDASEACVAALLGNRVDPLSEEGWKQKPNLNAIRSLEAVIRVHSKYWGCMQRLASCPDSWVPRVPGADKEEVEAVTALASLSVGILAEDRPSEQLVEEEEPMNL
The assay is described as follows: Inhibition of human recombinant HDAC7 pre-incubated with compounds for 10 mins measured followed by 60 mins of substrate addition.

Assay [13] relates to HCT-116. The experiment in a line: Antiproliferative activity against human HCT-116 cells measured after 48 hrs incubation by MTT assay relative to control. It is filed as functional, cell-based. The conditions noted are these: HCT-116, 48 h.

Sequence of Histone deacetylase 3 (O15379 whole entry): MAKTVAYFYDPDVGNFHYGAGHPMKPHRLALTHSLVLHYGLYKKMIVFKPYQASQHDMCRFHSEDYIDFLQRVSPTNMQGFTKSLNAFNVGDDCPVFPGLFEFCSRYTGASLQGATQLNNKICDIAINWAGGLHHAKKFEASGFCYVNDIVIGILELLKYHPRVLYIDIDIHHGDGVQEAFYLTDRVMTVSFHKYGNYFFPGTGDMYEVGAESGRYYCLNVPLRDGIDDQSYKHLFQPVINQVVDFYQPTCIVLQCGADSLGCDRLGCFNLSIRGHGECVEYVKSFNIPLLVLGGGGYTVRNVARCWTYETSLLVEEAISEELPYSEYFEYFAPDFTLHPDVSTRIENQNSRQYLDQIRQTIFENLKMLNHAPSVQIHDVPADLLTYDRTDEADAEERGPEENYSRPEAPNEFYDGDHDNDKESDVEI
Sequence of Histone deacetylase 1 (Q13547 whole entry): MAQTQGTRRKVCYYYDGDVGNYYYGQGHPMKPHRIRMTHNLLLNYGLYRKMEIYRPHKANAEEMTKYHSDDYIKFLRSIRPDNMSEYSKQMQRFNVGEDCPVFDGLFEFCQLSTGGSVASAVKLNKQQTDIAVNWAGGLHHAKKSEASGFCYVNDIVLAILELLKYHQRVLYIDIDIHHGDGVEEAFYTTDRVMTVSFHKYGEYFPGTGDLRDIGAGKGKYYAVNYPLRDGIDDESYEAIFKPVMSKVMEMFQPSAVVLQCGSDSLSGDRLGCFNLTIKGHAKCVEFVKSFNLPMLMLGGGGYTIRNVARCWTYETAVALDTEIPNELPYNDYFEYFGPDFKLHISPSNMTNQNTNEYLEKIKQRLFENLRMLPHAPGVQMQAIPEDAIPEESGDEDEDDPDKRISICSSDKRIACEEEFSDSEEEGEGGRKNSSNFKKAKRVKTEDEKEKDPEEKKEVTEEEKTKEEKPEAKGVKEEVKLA

On to `CCCNNC(=O)c1ccc(CNC(=O)c2cnc(-c3ccccc3)[nH]2)cc1`, for which the half-inhibitory concentration (IC50) is 0.066 µM in assay [1]; 1.97 µM in assay [2]; 2.19 µM in [3]; 8.91 µM in [4]; 3.06 µM in assay [6]; 0.5 µM in assay [7]. Further, the IC50 is 2.29 µM in assay [8]; more than 10 µM in assay [9]; 2.06 µM in assay [10]; 5.3 µM in [11]; more than 10 µM in [12]; 0.16 µM in assay [13]. The molecule also gave an Activity in [5] of 49.33%.

Regarding `COc1ccc(-c2ncc(C(=O)NCCCCCCC(=O)NO)s2)c(OC)c1`, in assay [1], the half-inhibitory concentration (IC50) came to 0.031 µM.

`CCCNNC(=O)c1ccc(CNC(=O)c2ncc(CNc3ccccc3)s2)cc1`: the 50% inhibitory concentration (IC50) in [2] stood at 3.77 µM; in [3] it was 0.25 µM; in [6], 1.77 µM; in [7] it was 0.67 µM; in [8] it was 1.76 µM; in [11], 2.35 µM. Also, in [13], the half-inhibitory concentration (IC50) came out at 0.31 µM. Besides, in [5], the Activity worked out at 57.29%.

Take `Nc1ccccc1NC(=O)c1ccc(CNC(=O)c2cnc(-c3ccc(F)cc3)[nH]2)cc1`: in [5], the Activity is 9.98%.

For `Nc1ccccc1NC(=O)c1ccc(CNC(=O)c2cnc(-c3ccc4c(c3)OCCO4)[nH]2)cc1`, the half-maximal inhibitory concentration (IC50) was 0.33 µM in [1]; more than 10 µM in [4]; more than 10 µM in assay [9]; 3.66 µM in [10]; more than 10 µM in assay [12]. The Activity in assay [5] worked out at 13.1%.

Consider `Nc1ccccc1NC(=O)c1ccc(CNC(=O)c2cnc(-c3cccc4ccccc34)[nH]2)cc1`, for which the concentration for half-maximal inhibition (IC50) in [1] was 0.096 µM; in [4] it was 9.43 µM; in assay [9] it was more than 10 µM; in assay [10] it was 2.43 µM; in [12], more than 10 µM. For the same molecule, the Activity in [5] stood at 39.28%.

As to `COc1ccc(-c2ncc(C(=O)NCc3ccc(C(=O)Nc4ccccc4N)cc3)[nH]2)cc1`, the IC50 in [1] is 0.1 µM; in assay [4], more than 10 µM; in assay [9], more than 10 µM; in assay [10], 4.45 µM; in assay [12] it was more than 10 µM. Also, the Activity in [5] amounted to 28.07%.

In the case of `CCCNNC(=O)c1ccc(CNC(=O)c2cnc(-c3ccc4ccccc4c3)[nH]2)cc1`, the IC50 in assay [1] was 0.074 µM; in [2], 1.67 µM; in assay [3], 1.37 µM; in assay [4], more than 10 µM; in assay [6] it was 1.97 µM; in assay [7], 0.69 µM. In addition, the IC50 in [8] was 2.11 µM; in assay [9], more than 10 µM; in assay [10], 1.74 µM; in assay [11], 3.47 µM; in assay [12], more than 10 µM; in [13] it was 0.22 µM. In assay [5], this molecule yielded an Activity of 52.99%.

On to `Nc1ccccc1NC(=O)c1ccc(CNC(=O)c2cnc(-c3ccc4occc4c3)[nH]2)cc1`, for which the IC50 in assay [1] is 0.091 µM; in [4] it was more than 10 µM; in assay [9], more than 10 µM; in assay [10] it was 4.18 µM; in assay [12], more than 10 µM. In assay [5], this molecule displayed an Activity of 31.86%.

On to `Nc1ccccc1NC(=O)c1ccc(CNC(=O)c2cnc(-c3ccc4ccccc4c3)[nH]2)cc1`, for which the concentration for half-maximal inhibition (IC50) in [1] is 0.1 µM; in [4] it was more than 10 µM; in assay [9], more than 10 µM; in assay [10], 4.62 µM; in assay [12], more than 10 µM. In addition, the Activity in [5] came out at 28.15%.

Regarding `CCCNNC(=O)c1ccc(CNC(=O)c2cnc(-c3ccnc4ccccc34)[nH]2)cc1`, the IC50 in assay [1] is 0.17 µM; in assay [4] it was more than 10 µM; in assay [9] it was more than 10 µM; in assay [10], 3.24 µM; in assay [12], more than 10 µM. This molecule returned an Activity in assay [5] of 13.07%.

For `CCCNNC(=O)c1ccc(CNC(=O)c2cnc(-c3ccc(F)cc3)[nH]2)cc1`, the IC50 in assay [1] was 0.13 µM; in [4], 9.02 µM; in assay [9] it was more than 10 µM; in [10], 0.96 µM; in [12], more than 10 µM. The molecule further had an Activity in [5] of 37.64%.

The molecule `CCCNNC(=O)c1ccc(CNC(=O)c2cnc(-c3ccc4[nH]ccc4c3)[nH]2)cc1` displayed an Activity in [5] of 2.77%.

For `Nc1ccccc1NC(=O)c1ccc(CNC(=O)c2cnc(-c3ccccc3)[nH]2)cc1`, the IC50 in [1] was 0.12 µM; in [4] it was more than 10 µM; in assay [9], more than 10 µM; in assay [10] it was 1.41 µM; in [12] it was more than 10 µM. In assay [5], the Activity worked out at 15.84%.

Consider `CCCNNC(=O)c1ccc(CNC(=O)c2cnc(-c3ccc(OC)cc3)[nH]2)cc1`, for which the IC50 in assay [1] is 0.088 µM; in assay [4] it was more than 10 µM; in assay [9], more than 10 µM; in assay [10], 2.36 µM; in assay [12], more than 10 µM. Further, in [5], the Activity worked out at 33.01%.

On to `CCCNNC(=O)c1ccc(CNC(=O)c2cnc(-c3ccc4c(c3)OCCO4)[nH]2)cc1`, for which the IC50 is 0.29 µM in assay [1]; more than 10 µM in [4]; more than 10 µM in [9]; 3.91 µM in assay [10]; more than 10 µM in [12]. Further, in assay [5], the Activity was found to be 23.11%.

The values above are taken from ChEMBL document CHEMBL6121046, “Discovery of Novel Hydrazide-Based HDAC3 Inhibitors as Epigenetic Immunomodulators for Cancer Immunotherapy” (J Med Chem, 2025).
